These results are taken from US7276576B1, “Mammalian ICYP (iodocyanopindolol) receptor and its applications” (Dainippon Sumitomo Pharma Co., Ltd., priority 1996, dated 2007).

Assay [1] relates to rat colon smooth muscle segment. The assay can be described thus: Relaxation of KCl-induced tonus in rat colon segment (organ bath). The following applies: for Slope of Schild plot for cyanopindolol, rat colon / pA2 for cyanopindolol, rat colon / IA, rat colon relaxation / EC50: 10 μM phentolamine and 1 μM propranolol; for IA, rat colon relaxation: relative to isoproterenol; for IA, rat colon relaxation / EC50: mean ± SEM; for EC50: Rattus norvegicus, relaxation of KCl (100 mM)-induced tonus, read-out: pD2, rat colon relaxation (converted). How it is done:
Rat colon segment (2 cm) was suspended in organ bath containing 10 ml modified-Tyrode solution (Sugasawa T. et al. Eur. J. Pharmacol., 1992, 216, 207-215). The Tyrode solution contained 0.5 μM atropine, 0.5 μM desmethylimipramine, 30 μM hydrocortisone, 30 μM ascorbic acid, 10 μM phentolamine and 1 μM propranolol throughout study, in order to inhibit spontaneous contraction, neuronal and extra-neuronal uptake of norepinephrine, oxidation of catecholamines, possible α, β1- and β2-AR effects, respectively.
The relaxant action of agonists was determined by measuring relaxation of KCl (100 mM)-induced tonus evoked by cumulative addition of the agonists as described previously (Sugasawa T. et al. cited above). In the case of testing the effect of cyanopindolol, it was added 5-10 min before the addition of agonist.
(§1) Agonist concentration-ratios (CR) were determined from the EC50 values of the concentration-response curves of agonists with or without cyanopindolol, according to the method of Arunlakshana et al., 1959.
(§2) The EC50 values were calculated using the computer program, InPlot™.

The test system of assay [2] is rat white adipocytes. Kind of assay: Lipolysis in rat white adipocytes. The format is cell-based. The settings on record: for Slope of Schild plot for cyanopindolol, rat white adipocytes / pA2 for cyanopindolol, rat white adipocytes / IA, rat white adipocyte lipolysis / EC50: 10 μM phentolamine and 1 μM propranolol; for IA, rat white adipocyte lipolysis: relative to isoproterenol; for IA, rat white adipocyte lipolysis / EC50: mean ± SEM; for EC50: Rattus norvegicus, Adipocyte, read-out: pD2, rat white adipocyte lipolysis (converted). The procedure:
White adipocytes were isolated from epididymal fat pads of male Wistar rats (190-230 g) and lipolysis was determined according to the previous report (Sugasawa T. et al. cited above). The cells were preincubated for 5 min at 37° C. in the presence of 30 μM ascorbic acid, 10 μM phentolamine and 1 μM propranolol.
Agonists were then applied and incubated for 90 min. In the case of testing the effect of cyanopindolol, it was added 5 min before the addition of agonist.
as §1, §2

For assay [3], the target named is T1, [125I]-ICYP specific binding site (SMBP, SM-11044 binding protein) in rat colon smooth muscle membranes (Rattus norvegicus, UniProt A0A8I6A822).
T1 construct: Membranes from colon smooth muscles were prepared as essentially described by Ek et al., 1986; from tissue
T1 sequence (A0A8I6A822 27-587): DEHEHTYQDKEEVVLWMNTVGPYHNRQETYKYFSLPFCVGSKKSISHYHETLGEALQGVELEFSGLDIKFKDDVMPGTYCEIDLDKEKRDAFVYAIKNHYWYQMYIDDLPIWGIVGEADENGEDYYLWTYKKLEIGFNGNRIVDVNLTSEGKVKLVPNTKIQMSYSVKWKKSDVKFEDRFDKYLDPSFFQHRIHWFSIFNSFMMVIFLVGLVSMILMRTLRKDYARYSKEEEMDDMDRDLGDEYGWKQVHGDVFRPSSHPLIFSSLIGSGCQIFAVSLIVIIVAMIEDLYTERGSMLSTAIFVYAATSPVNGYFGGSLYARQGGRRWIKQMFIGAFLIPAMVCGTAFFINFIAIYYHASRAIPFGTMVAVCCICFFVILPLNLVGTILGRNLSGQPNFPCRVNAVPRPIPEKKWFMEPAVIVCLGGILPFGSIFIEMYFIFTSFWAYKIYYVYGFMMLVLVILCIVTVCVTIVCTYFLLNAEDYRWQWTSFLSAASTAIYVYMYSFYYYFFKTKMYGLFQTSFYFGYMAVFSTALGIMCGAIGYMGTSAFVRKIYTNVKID
Kind of assay: [125I]-ICYP saturation and competition binding to rat colon membranes (Example 2). How it is done:
Incubations were carried out at 37° C. for 30 min in a shaking water-bath incubator and terminated by addition of 4 ml of ice-cold Tris-saline followed by rapid filtration under vacuum on Whatman GF/B filter presoaked in Tris-saline containing 0.1% polyethyleneimine (pH 7.4). The filters were washed three times with 4 ml of ice-cold Tris-saline, transferred to plastic tubes and counted in a γ-counter.
Hill coefficient was calculated by linear regression using saturation experiment data. Pseudo-Hill coefficient and IC50 were determined by the computer program, InPlot™ (GraphPad Software, CA, USA).

Assay [4] has as its system atypical β-AR in rat colon. The following applies: under blockade of β1- and β2-AR effects; McLaughlin, MacDonald et al.; cited from earlier work.
Assay [5] concerns [125I]-ICYP specific binding site in rat skeletal muscle membranes. The assay can be described thus: [125I]-ICYP binding to rat skeletal muscle membranes. The settings on record: 1 nM [125I]-ICYP; 10 μM 5-HT, 10 μM phentolamine and 20 μM propranolol. How it is done:
Membranes from the colon smooth muscle and from skeletal muscle were prepared from male Wistar rats (300-360 g) as essentially mentioned in example 1.
Saturation binding studies were performed in a final volume of 200 μl of Tris-saline containing 50 μg membrane proteins and different concentrations ([…]) of [^125I]-ICYP, supplemented with 10 μM serotonine (5-HT), 10 μM phentolamine, 20 μM propranolol and 1.1 mM ascorbic acid (pH 7.4), to block possible 5-HT receptors, ARs and oxidation of catecholamines, respectively. The [^125I]-ICYP was used after removing methyl alcohol by compressed air to avoid the influence of the solvent. […] The filters were washed three times with 4 ml of ice-cold Tris-saline, transferred to plastic tubes and counted in a γ-counter.
Competition assays were performed against 1 nM [^125I]-ICYP. Non-specific binding was determined in the presence of 100 μM SM-11044. The inhibition constant, Ki, of a ligand was calculated using the equation described by Cheng and Prusoff (Biochem. Pharmacol., 1973, 22, 3099-3108). Hill coefficient was calculated by linear regression using saturation experiment data. Pseudo-Hill coefficient and IC50 were determined by the computer program, InPlot™ (GraphPad Software, CA, USA).

Assay [6] concerns guinea pig eosinophil. Kind of assay: Leukotriene B4 induced guinea pig eosinophil chemotaxis. The format is cell-based.
In assay [7] the target is T2, 34 kDa photoaffinity-labeled protein (SMBP) in rat colon membranes (Rattus norvegicus, UniProt A0A8I6A822).
T2 construct: Membranes from colon smooth muscles were prepared as essentially described by Ek et al., 1986; from tissue
T2 sequence (A0A8I6A822 27-587): as above
Kind of assay: Photoaffinity labeling of rat colon membranes with [125I]-ICYP-diazirine. The format is binding. The settings on record: competitor 100 μM; 1.5 nM [125I]-ICYP-diazirine; 10 μM 5-HT, 10 μM phentolamine, 20 μM propranolol. How it is done:
Incubations were carried out in the presence or absence of competitor at 37° C. for 45 min in the dark in a shaking water-bath incubator and terminated by addition of 10 ml of ice-cold Tris-saline followed by a rapid centrifugation (150,000×g for 10 min at 4° C.). The membranes were irradiated with a UV lamp for 5 min with cooling by circulating water. The labeled membranes were diluted with 10 ml of ice-cold Tris-saline, centrifuged (150,000×g for 30 min at 4° C.), and the pellet was resuspended in Tris-saline and kept at −80° C.
SDS-PAGE was performed under reducing conditions essentially as described by Laemmli, 1970, using 12% polyacrylamide gels (40% T, 2.6% C). […] After electrophoresis, the gels were dried and autoradiographed on X-OMAT™ AR film (Eastman Kodak Co., NY, USA), as specified in example 1, chapter <<(preparative SDS-PAGE>>.

Assay [8] has as its system guinea pig ileum. The assay can be described thus: Guinea pig ileum relaxation of KCl-induced tonus. The settings on record: compared with rat white adipocyte lipolysis.
In assay [9] the target is rat SM-11044 binding protein (Ro-SMBP) of rat colon smooth muscle membranes (rat) (UniProt D3ZUD8). The assay can be described thus: WGA-sepharose chromatography, elution with N-acetyl-D-glucosamine.
[10] abbreviates: agonist (−)-isoproterenol, listed as Cyanopindolol.
[11] abbreviates: agonist (−)-isoproterenol, listed as cyanopindolol.
Where [12] appears, read: agonist SM-11044, listed as Cyanopindolol.
[13] abbreviates: agonist SM-11044, listed as cyanopindolol.
[14] abbreviates: up to the concentration of 10 μM.
The mark [15] stands for this setting: 1 nM [125I]-ICYP, 10 μM 5-HT, 10 μM phentolamine and 20 μM propranolol, read-out: Ki on [125I]-ICYP specific binding to rat colon membranes.

Where “and” joins values, the source holds several entries; their conditions need not be identical. Equal entries are not always repeated. Structures can show the parent of a compound that is named as a salt. Where two headings read alike, the source gives them in different places.

For orientation: Ki means a dissociation constant, usually derived from enzyme kinetics or from competition with a known ligand. For `CC(C)(C)NCC(O)COc1cccc2[nH]c(C#N)cc12` (racemic) [(±)-cyanopindolol, cyanopindolol], the “Slope of Schild plot for cyanopindolol, rat colon” value in assay [1] (setting [10]) is 1.03; in assay [1] (setting [11]), 1.03 ± 0.08; in assay [1] (setting [12]) it was 0.78; in [1] (setting [13]), 0.78 and 0.78 ± 0.11. Also, the “pA2 for cyanopindolol, rat colon” value was 7.65 in assay [1] (setting [10]); 7.65 ± 0.48 in assay [1] (setting [11]); 8.31 in assay [1] (setting [12]); 8.31 and 8.31 ± 0.88 in assay [1] (setting [13]). Besides, the “Effect of the compound itself on the degree of tonus induced by KCl” value in [1] (setting [14]) is recorded as “had no effect”. The “Slope of Schild plot for cyanopindolol, rat white adipocytes” value in assay [2] (setting [10]) is recorded as 1.08; in [2] (setting [11]) it was 1.08 ± 0.10; in assay [2] (setting [12]), 0.96; in assay [2] (setting [13]) it was 0.96 ± 0.21. Moreover, the “pA2 for cyanopindolol, rat white adipocytes” value in assay [2] (setting [10]) is given as 7.44; in assay [2] (setting [11]), 7.44 ± 0.61; in [2] (setting [12]), 7.32; in assay [2] (setting [13]) it was 7.32 ± 1.51. In assay [2] (setting [14]), the “Stimulation of lipolysis by the compound itself” value is recorded as “did not stimulate lipolysis”. This molecule also displayed an inhibition constant Ki in assay [3] of 0.11 µM. For the same molecule, the Pseudo-Hill coefficient in assay [3] (1 nM [125I]-ICYP, 10 μM 5-HT, 10 μM phentolamine and 20 μM propranolol) is listed as 1.01 ± 0.14. The “pA2 against propranolol-resistant responses of isoproterenol in rat colon” value in assay [4] is given as 7.12.

With `CC(C)NC[C@H](O)c1ccc(O)c(O)c1` (single isomer, unassigned) [(−)-isoproterenol, isoproterenol], in assay [1], the “IA, rat colon relaxation” value came out at 1.00 ± 0.063 and the EC50 was 0.229 µM. Besides, in [2], the “IA, rat white adipocyte lipolysis” value was 1.00 ± 0.037 and the EC50 is 1.38 µM. The Ki in assay [3] (setting [15]) is above 1000 µM. Further, the “Displacement of [125I]-ICYP specific binding” value in [3] (up to the concentration of 1 mM) is “not displaced”. Moreover, the “Displacement of [125I]-ICYP specific binding to skeletal muscle membranes” value in [5] is “not displaced by isoproterenol up to concentrations of 10^−4 M”. The “Inhibition of leukotriene B4 induced guinea pig eosinophil chemotaxis” value (shortened to “Inhibition”) in assay [6] is on record as “no such effect”.

On to `CC(Cc1ccc(OCC(=O)O)cc1)NCC(O)c1cccc(Cl)c1` (centres unmarked) [BRL-37344], for which, in [1], the “IA, rat colon relaxation” value amounted to 1.00 ± 0.126 and the EC50 is 0.0316 µM. In addition, in [2], the “IA, rat white adipocyte lipolysis” value was 0.72 ± 0.0333 and the EC50 is 0.0562 µM. In assay [3] (setting [15]), the Ki is above 100 µM. Also, the “Displacement of [125I]-ICYP specific binding” value in assay [3] (up to the concentration of 100 μM) is “did not displace”. The “Displacement of the photoaffinity-labeled 34 kDa band” value in [7] is listed as “not displaced”. Besides, the “Inhibition” value in assay [6] is “no such effect”.

In the case of `O=C([C@@H](NCCCc1ccc(F)cc1)[C@H](O)c1ccc(O)c(O)c1)N1CCCC1` [SM-11044, (L)-threo-3-(3,4-dihydroxyphenyl)-N-[3-(4-fluorophenyl)propyl]serine pyrrolidine amide hydrobromide], in assay [1], the “IA, rat colon relaxation” value was found to be 1.48 ± 0.166 and the EC50 was 0.0513 µM. For the same molecule, in assay [2], the “IA, rat white adipocyte lipolysis” value stood at 0.86 ± 0.054 and the EC50 is 1.1 µM. In assay [3] (1 nM [125I]-ICYP, 10 μM 5-HT, 10 μM phentolamine and 20 μM propranolol, hydrobromide), this molecule registered a Pseudo-Hill coefficient of 1.00 ± 0.12. For the same molecule, the Ki in assay [3] (setting [15]) turned out to be 1.8 ± 0.3 µM. Besides, the “Displacement of [125I]-ICYP specific binding to skeletal muscle membranes” value in assay [5] is listed as “displaced the binding in a concentration-dependent manner”. In assay [6], the “Inhibition” value is on record as “inhibiting”. Also, the “Relaxation of KCl-induced tonus in guinea pig ileum (in words)” value in assay [8] is given as “more efficiently than rat white adipocyte lipolysis”.

B1: Wheat Germ Agglutinine (WGA)-sepharose 6 MB (protein, UniProt P10968 27-197, looked up)
chain: QRCGEQGSNMECPNNLCCSQYGYCGMGGDYCGKGCQNGACWTSKRCGSQAGGATCTNNQCCSQYGYCGFGAEYCGAGCQGGPCRADIKCGSQAGGKLCPNNLCCSQWGFCGLGSEFCGGGCQSGACSTDKPCGKDAGGRVCTNNYCCSKWGSCGIGPGYCGAGCQSGGCDG
B1: the percent of the radiolabeled material eluted by the specific sugar in [9] is 2.3%.
